# Measured values taken from patent US20040127475A1, “Apparatus and method for delivering compounds to a living organism” (Estrogen Vascular Technology, LLC, priority 1999, published 2004).
# System: porcine coronary arteries
# Experiment: 17B-estradiol eluting stents in the pig model of instent restenosis, histomorphometric analysis at 30 days
# Format: in vivo
# Settings: pre-clinical work, same stent, dose and loading process as Example 3
# Description: In another example, low and high dose 17B-estradiol eluting stents were compared with control stents in a randomized fashion in 18 porcine coronary arteries. Each artery of six pigs were randomly stented with either a control, low-dose or high-dose 17-estradiol eluting stent. All animals were sacrificed at 30 days for histomorphometric analysis.
# The experiment and animal care conformed to National Institutes of Health and American Heart Association guidelines for the care and use of animals and were approved by the Institutional Animal Care and Use Committee at the Washington Hospital Center. Six domestic juvenile swine weighing 35-45 kg were used. […] Heart rate, blood pressure and electrocardiography were monitored throughout the procedure. […]
# Coronary angiography was performed after intracoronary nitroglycerin (200 μg) administration and recorded on cine film (Phillips Cardiodiagnost; Shelton, Conn.). […]
# The histopathologist was blinded to the stent types in each artery. […] The vessel injury score was determined by the method described by Kornowski et al. The scoring of endothelialization is based on percent of intimal surface covered by endothelial cells. […]
# Data (mean±standard deviation) were analyzed to determine differences between treatment groups using an ANOVA with a post-hoc Bonferroni analysis. […]
smiles,measurement,value
"C[C@]12CC[C@@H]3c4ccc(O)cc4CC[C@H]3[C@@H]1CC[C@@H]2O [17β-estradiol, 17β-Estradiol]",reduction in in-stent neo-intimal formation,40%
